Test results as given in US7176352B1, “Transgenic Lemnaceae” (Yeda Research and Development Company Ltd., priority 1997, dated 2007).

Experiments:
[1] = test system: Calli of Spirodela punctata var. Helgm; assay: Regeneration of plants from Spirodela calli; type: in vivo; settings: B-5 medium, 1% sucrose, scored after 2 weeks; for Regenerating calli No.: 30 calli
Method: Spirodela calli were maintained on B-5 medium (Table 6 below) supplemented with 1.0% sucrose, 3 mg/l 2IP and 10 mg/l 2,4-D. For regeneration, calli were transferred to B-5 medium supplemented with 1,0% sucrose and 2 mg/l 2IP. Fully regenerated S. punctata plants were efficiently obtained within 1–2 weeks. Spirodela calli and the regenerated plants, were grown at 26° C. under continuous fluorescent light (30 μE m^−2s^−1).
Calli of Spirodela punctata var. Helgm, maintained for 7 to 16 weeks on B-5 medium supplemented with 1% sucrose, […] 2IP and 10 mg/l 2,4-D, were transferred to B-5 medium supplemented with 1% sucrose and different concentrations of 2IP. Regenerated plants were visually scored after 2 weeks.

[2] = test system: Spirodela punctata plants; assay: GUS expression of transformed plants grown on kanamycin or BASTA supplemented SP medium; type: in vivo; settings: supplement 2 μg/ml in SP medium, 2 to 5 weeks
Method: The method involved wounding plants, co-cultivating them with 5×10^8 bacteria ml^−1 (A. tumefaciens strain EHA105 harboring Ti plasmid pME504) for 30 min. and vacuum infiltration (30 mbar, for 5–10 min). Transformed Spirodela punctata plants were grown in SP medium (Table 2) supplemented with 2 μg/ml kanamycin for 2 to 5 weeks. Six green plants resistant to kanamycin, and a sampling of bleached ones, were assayed for GUS expression.

CC(C)=CCNc1ncnc2nc[nH]c12 [2 IP]
Regenerating calli (%) ([1]; 2 IP 2 mg/l): 73% | Regenerating calli No. ([1]; 2 IP 2 mg/l): 22 | Regenerating calli (%) ([1]; 2 IP 10 mg/l): 0% | Regenerating calli No. ([1]; 2 IP 10 mg/l): 0

NC[C@H]1O[C@H](O[C@H]2[C@H](O)[C@@H](O[C@H]3O[C@H](CO)[C@@H](O)[C@H](N)[C@H]3O)[C@H](N)C[C@@H]2N)[C@H](O)[C@@H](O)[C@@H]1O [Kanamycin]
GUS expression (% fronds) Bleached plants ([2]; bleached plants): 0 % fronds | GUS expression (% fronds) Green plants ([2]; green resistant plants): 83 % fronds
